Assay: xn = mol fraction of the nth substance listed
Details: 101 kPa, frequency 2 MHz

O=S(=O)([O-])C(F)(F)F.[Li+] + O=S(=O)([N-]S(=O)(=O)C(F)(F)F)C(F)(F)F.[Li+] + O
electrical conductivity [S/m]
Details	273 K	278 K	283 K	288.1 K	293 K	298.1 K
x2 = 0.001799, x1 = 0.0005943	0.413	0.475	0.542	0.615	0.693	0.778
x2 = 0.005377, x1 = 0.001799	0.96	1.114	1.28	1.47	1.67	1.89
x2 = 0.00893, x1 = 0.003054	1.38	1.606	1.86	2.134	2.434	–
x2 = 0.01246, x1 = 0.004127	1.716	2.004	2.323	2.67	3.05	–
x2 = 0.01596, x1 = 0.005377	1.99	2.33	2.704	3.116	3.56	–
x2 = 0.01944, x1 = 0.006623	2.219	2.6	3.017	3.48	3.98	–
x2 = 0.05129, x1 = 0.0177	2.96	3.47	4.041	4.67	5.346	–
x2 = 0.08265, x1 = 0.02921	2.59	3.039	3.538	4.09	4.68	–
x2 = 0.112, x1 = 0.04029	1.98	2.329	2.718	3.147	3.616	–
x2 = 0.1395, x1 = 0.05129	1.422	1.68	1.97	2.29	2.648	–
x2 = 0.1654, x1 = 0.06203	0.985	1.17	1.39	1.625	1.89	–
x2 = 0.1898, x1 = 0.07238	0.666	0.802	0.957	1.133	1.331	–
x2 = 0.2128, x1 = 0.08265	0.443	0.54	0.652	0.782	0.929	–
x2 = 0.2345, x1 = 0.0927	0.291	0.36	0.441	0.535	0.644	–
x2 = 0.2551, x1 = 0.1024	0.189	0.237	0.295	0.364	0.445	–
x2 = 0.2745, x1 = 0.112	0.121	0.155	0.196	0.246	0.305	–
